From patent publication US11702402B2, “Small molecules that block proteasome-associated ubiquitin receptor RPN13 function and uses thereof” (DANA-FARBER CANCER INSTITUTE, INC., priority 2018, dated 2023)

Columns and labels:
[1] = tested on: cyclin-B1, CDC25C, and CDCl2; test: Cell-cycle regulatory protein immunoblot; format: cell-based, Human; settings: MM.1S 200 nM; ANBL6.BR 1 μM; 16 hours
Experimental: FIGS. 22A to 22F show the mechanisms of WL40-induced MM cell death. […] MM.1S cells were treated with DMSO control or WL40 (200 nM) for 16 hours, and then analyzed for apoptosis using Annexin V/PI double staining assay (mean±SD; n=3; p<0.001). FIG. 22B is an immunoblot of MM.1S and ANBL6.BR cells, which were treated with DMSO control or WL40 (200 nM for MM.1S; 1 μM for ANBL6.BR) for 16 hours; protein lysates were then subjected to the immunoblotting using antibodies against poly ADP ribose polymerase (PARP), caspase-3, caspase-7, caspase-8, caspase-9, or β-actin. FL, full length; CF, cleaved fragment. FIG. 22C is a bar graph measuring enzymatic activity. MM.1S cells were treated with DMSO control or WL40 (200 nM) for 12 hours, followed by the measurement of caspase-3, caspase-8, or caspase-9 enzymatic activity (mean±SD; n=3; p<0.0001). FIG. 22D is an immunoblot of MM.1S and ANBL6.BR cells, which were treated with DMSO control or WL40 (200 nM for MM.1S; 1 μM for ANBL6.BR) for 16 hours; protein lysates were then subjected to the immunoblotting using specific antibodies against Cyclin-B1, Cell Division Cycle 25C (CDC25C), Cell Division Cycle 2 (CDCl2), or β-actin. […]

RPN13 = RPN13 (Homo sapiens, UniProt Q16186); test: Rpn13 flow cytometry in MM.1S cells; format: cell-based; parameters: endogenous in cells; host or cells: MM.1S; MM.1S-CRBN KO; RPMI-8226; ANBL6.BR; settings: WL40 (400 nM) 16 hours, versus DMSO or RA190 (500 nM)
Experimental: FIGS. 19A-19I show the exemplary design and characterization of exemplary Rpn13 degrader WL40. […] WL40 was created by linking the Rpn13 inhibitor RA190 to the IMiD thalidomide as a ligand for the CRBN E3 ligase via a PEG linker. […] FIG. 19C is a schematic cartoon for the novel AlphaScreen assay to measure the binding activity of inhibitor with RPN13 proteins. […] FIG. 19E depicts immunoblot analysis of multiple myeloma 1S (MM.1S) cells, which were treated with WL40 or RA190 at the indicated concentrations and time periods; protein lysates were subjected to the immunoblot analysis using anti-Rpn13 or anti-tubulin Abs. FIG. 19F depicts flow cytometry analysis of MM.1S cells, which were treated with DMSO control, WL40 (400 nM), or RA190 (500 nM) for 16 hours; cells were then washed and stained with Rpn13 Ab conjugated with AlexaFluor-647, followed by the flow cytometry analysis. […] Data was quantified using FACS Diva (BD Biosciences, USA) and FlowJo (FlowJo LLC, USA). […]
Next, it was examined whether WL40 decreases cellular Rpn13 levels in MM cells. MM.1S cells were treated with various concentrations of WL40 (20 0 nM, 400 nM, or 800 nM) for 4 hours, 8 hours, and 16 hours; protein lysates were then analyzed for Rpn13 levels using immunoblot analysis. […] To further corroborate the findings, MM.1S cells were treated with WL40, and then analyzed intracellular alterations in Rpn13 using flow cytometry.

Chain of RPN13 (Q16186 whole entry): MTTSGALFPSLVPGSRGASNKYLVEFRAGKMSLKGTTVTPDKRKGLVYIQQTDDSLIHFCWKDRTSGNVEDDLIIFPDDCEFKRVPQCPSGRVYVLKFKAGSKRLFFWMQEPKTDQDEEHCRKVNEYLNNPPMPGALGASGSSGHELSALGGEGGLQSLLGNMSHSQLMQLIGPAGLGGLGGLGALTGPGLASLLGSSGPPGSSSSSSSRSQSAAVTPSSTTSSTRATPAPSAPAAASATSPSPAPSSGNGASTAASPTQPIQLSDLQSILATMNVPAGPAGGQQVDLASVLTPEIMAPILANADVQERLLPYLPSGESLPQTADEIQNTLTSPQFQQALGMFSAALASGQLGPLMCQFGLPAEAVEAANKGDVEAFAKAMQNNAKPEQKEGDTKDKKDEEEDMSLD

SMILES: O=C1CCC(N2C(=O)c3cccc(NCCOCCOCCOCCC(=O)N[C@@H](Cc4ccccc4)C(=O)N4C/C(=C\c5ccc(Cl)c(Cl)c5)C(=O)/C(=C/c5ccc(Cl)c(Cl)c5)C4)c3C2=O)C(=O)N1 (some centres unmarked) [WL40]
- levels of cell-cycle regulatory proteins [1]: reduction in the levels of cell-cycle regulatory proteins
- Rpn13 expression (flow cytometry) (RPN13): significant reduction in Rpn13 expression
